{
  "source": "patent US20100028366A1",
  "about": "“SYNERGISTIC EFFECT BETWEEN A […] AND ANOTHER OXIDATIVE INDUCING SYSTEM FOR TREATING TUMORS” (priority 2005, published 2010)",
  "type_in_all_cases": "cell-based, canine",
  "key": {"[1]": {"system": "W&Wlis cells", "assay": "DNA content analysis by flow cytometry, labeling with propidium iodide", "design": "unit not given here", "conditions": "UV (24 hours), 12.5 J/m^2; Z-VAD-fmk 100 μM; UV Control = 66.14"}, "[2]": {"system": "W&Wlis cells", "assay": "Analysis of the type of death by flow cytometry (annexin V-FITC/propidium iodide)", "design": "Necrosis / Apoptosis: unit not given here", "description": "The annexin V-FITC and propidium iodide assay was performed in parallel by flow cytometry. The pattern of death of the system was analyzed when adding 5 mEU/ml of glucose oxidase and the combined therapy (5 mEU/ml of GO and 500 μg/ml of linamarin) at 48 hours, followed by the control of untreated cells and of the cells incubated with 500 μg/ml of linamarin at 96 hours. Furthermore, another group of cells was subjected to the same conditions except 10 mM of N-acetyl cysteine (NAC) were added. The cells treated with the combined therapy were subsequently studied at 48 hours in the absence and presence of 100 μM of Z-VAD-fmk, followed by the control of treatment of the cells with UV in the same conditions. Finally, the cells treated with the combined therapy were shown at 48 hours in the absence and presence of 300 μM of 1,5-isoquinolinediol (DIQ), observing that the pattern of death is not modified when PARP-1 is inhibited (FIG. 4).\n10^5 W&Wlis cells were seeded in test tubes with a screw-on cap and flat side (Nunc). After 24 hours, different amounts of linamarin (50, 200 or 500 μg/ml) and glucose oxidase (5 mEU/ml) were added in the specified cases. In the appropriate assays, the medium was supplemented with N-acetyl cysteine (10 mM), 1,5-isoquinolinediol (300 μM) or Z-VAD-fmk (100 μM). […] They were centrifuged for 5 minutes at 1200 rpm and the cell precipitate was washed first with PBS and then with binding buffer (0.1 M Hepes/NaOH pH 7.4, 1.4 M NaCl and 25 mM CaCl2). The cells were again precipitated and resuspended in 100 μl of binding buffer supplemented with 5 μl of annexin V-FITC and 2.5 μg/ml of propidium iodide. The samples were incubated for 15 minutes in the dark. Data acquisition and analysis was carried out by means of a FACSCalibur flow cytometer (DB Biosciences) with the Cell Quest program."}, "[3]": {"system": "W&Wlis cells", "assay": "Analysis of the type of death by flow cytometry (annexin V-FITC/propidium iodide)", "design": "unit not given here", "conditions": "Table 5; Control cells; DIQ (300 μM); 32 hours"}, "[4]": {"conditions": "Table 4, 0 μg lin, Without GO, 72 hours, Z-VAD-fmk (100 μM)"}, "[5]": {"conditions": "Table 5, Control cells, DIQ (300 μM), 48 hours"}, "[6]": {"conditions": "0 μg lin, Without GO, 96 hours, NAC (10 mM)"}},
  "note": "Peptide text beside a SMILES is read from it. * marks the point of attachment. Cbz = O=C(OCc1ccccc1)*; CH2F = FC*",
  "data": [
    {"smiles": "COC(=O)C[C@H](NC(=O)[C@H](C)NC(=O)[C@@H](NC(=O)OCc1ccccc1)C(C)C)C(=O)CF", "note": "[Z-VAD-fmk, reference compound] (Cbz-Val-Ala-Asp(OMe)-CH2F)", "values": [
      {"measurement": "DNA content by flow cytometry, labeling with propidium iodide", "setting": "[1]", "value": "Z-VAD-fmk = 2.71"},
      {"measurement": "Apoptosis", "setting": "[2]; [4]", "value": 2.66},
      {"measurement": "Necrosis", "setting": "[2]; [4]", "value": 37.25},
      {"measurement": "inhibition of UV radiation-induced apoptosis", "setting": "[2]; Z-VAD-fmk (100 μM), UV 12.5 J/m^2, DNA content and annexin V-FITC/propidium iodide", "value": "complete inhibition"}
    ]},
    {"smiles": "Oc1cccc2c(O)nccc12", "note": "[DIQ, 1,5-isoquinolinediol, reference compound]", "values": [
      {"measurement": "Necrosis", "setting": "[3]", "value": 17.62},
      {"measurement": "Apoptosis", "setting": "[2]; Table 5, Control cells, DIQ (300 μM), 32 hours", "value": 8.15},
      {"measurement": "Apoptosis", "setting": "[2]; [5]", "value": 20.16},
      {"measurement": "Necrosis", "setting": "[2]; [5]", "value": 29.59}
    ]},
    {"smiles": "CC(=O)N[C@@H](CS)C(=O)O", "note": "[NAC, N-acetyl cysteine, reference compound]", "values": [
      {"measurement": "Apoptosis", "setting": "[2]; [6]", "value": 16.17},
      {"measurement": "Necrosis", "setting": "[2]; [6]", "value": 13.46}
    ]}
  ]
}
